# According to US6953779B2, “Melanocortin receptor antagonists and modulations of melanocortin receptor activity” (The Regents of the University of California, priority 1998, dated 2005):
# Square brackets hold non-standard residues; d marks the D form. Peptide text beside a SMILES is read from it. * marks the point of attachment. d2Nal = N[C@H](Cc1ccc2ccccc2c1)C(=O)O; Benzoyl(3-OMe) = COc1cccc(C(=O)*)c1; Benzoyl(4-OMe) = COc1ccc(C(=O)*)cc1; d2Thi = N[C@H](Cc1cccs1)C(=O)O
# Tested on: heat-induced edema in the anesthetized rat's paw
# Experiment: Suppression of heat-induced edema in the anesthetized rat's paw (anti-inflammatory)
# Assay type: in vivo
# Details: i.v.; suppression of heat-induced edema in the anesthetized rat's paw
row,Compound,Anti-Inflammatory ED50
1,"CC[C@H](C)[C@H](NC(=O)[C@@H](Cc1c[nH]c2ccccc12)NC(=O)[C@H](CC(C)C)NC(=O)[C@H](CC(C)C)NC(=O)[C@H](CCCCN)NC(=O)[C@H](CCCNC(=N)N)NC(=O)c1ccc(OC)cc1)C(=O)N[C@H](CC(C)C)C(N)=O [S-117, p-anisoyl-Arg-Lys-Leu-Leu-D-Trp-Ile-D-Leu-NH2] ({Benzoyl(4-OMe)}-RKLL[dW]I[dL]-NH2)",0.16 (0.050-0.40) mg/kg
2,"CC[C@H](C)[C@H](NC(=O)[C@@H](Cc1cccs1)NC(=O)[C@H](CC(C)C)NC(=O)[C@H](CC(C)C)NC(=O)[C@H](CCCCN)NC(=O)[C@H](CCCNC(=N)N)NC(=O)c1ccc(OC)cc1)C(=O)N[C@H](CC(C)C)C(N)=O [mystixin-7, p-anisoyl-Arg-Lys-Leu-Leu-D-Thi-Ile-D-Leu-NH2] ({Benzoyl(4-OMe)}-RKLL[d2Thi]I[dL]-NH2)",0.02 (0.014-0.059) mg/kg
3,"CC[C@H](C)[C@H](NC(=O)[C@@H](Cc1ccc2ccccc2c1)NC(=O)[C@H](CC(C)C)NC(=O)[C@H](CC(C)C)NC(=O)[C@H](CCCCN)NC(=O)[C@H](CCCNC(=N)N)NC(=O)c1ccc(OC)cc1)C(=O)N[C@H](CC(C)C)C(N)=O [S-114, p-anisoyl-Arg-Lys-Leu-Leu-D-Nal-Ile-D-Leu-NH2] ({Benzoyl(4-OMe)}-RKLL[d2Nal]I[dL]-NH2)",0.38 (0.16-0.91) mg/kg
4,"CC[C@H](C)[C@H](NC(=O)[C@@H](Cc1cccs1)NC(=O)[C@H](CC(C)C)NC(=O)[C@H](CC(C)C)NC(=O)[C@H](CCCCN)NC(=O)[C@H](C)NC(=O)c1ccc(OC)cc1)C(=O)N[C@H](CC(C)C)C(N)=O [S-167, p-anisoyl-Ala-Lys-Leu-Leu-D-Thi-Ile-D-Leu-NH2] ({Benzoyl(4-OMe)}-AKLL[d2Thi]I[dL]-NH2)",>2 mg/kg
5,"CC[C@H](C)[C@H](NC(=O)[C@@H](Cc1cccs1)NC(=O)[C@H](CC(C)C)NC(=O)[C@H](CC(C)C)NC(=O)[C@H](CCCCN)NC(=O)[C@H](CCCNC(=N)N)NC(=O)c1ccc(OC)cc1)C(=O)N[C@H](C)C(N)=O [S-162, p-anisoyl-Arg-Lys-Leu-Leu-D-Thi-Ile-D-Ala-NH2] ({Benzoyl(4-OMe)}-RKLL[d2Thi]I[dA]-NH2)",0.24 (0.11-0.50) mg/kg
6,"CC[C@H](C)[C@H](NC(=O)[C@@H](Cc1cccs1)NC(=O)[C@H](CC(C)C)NC(=O)[C@H](CC(C)C)NC(=O)[C@H](C)NC(=O)[C@H](CCCNC(=N)N)NC(=O)c1ccc(OC)cc1)C(=O)N[C@H](CC(C)C)C(N)=O [S-166, p-anisoyl-Arg-Ala-Leu-Leu-D-Thi-Ile-D-Leu-NH2] ({Benzoyl(4-OMe)}-RALL[d2Thi]I[dL]-NH2)",>2 mg/kg
7,"CC[C@H](C)[C@H](NC(=O)[C@@H](Cc1ccc(O)cc1)NC(=O)[C@H](CC(C)C)NC(=O)[C@H](CC(C)C)NC(=O)[C@H](CCCCN)NC(=O)[C@H](CCCNC(=N)N)NC(=O)c1ccc(OC)cc1)C(=O)N[C@H](CC(C)C)C(N)=O [S-116, p-anisoyl-Arg-Lys-Leu-Leu-D-Tyr-Ile-D-Leu-NH2] ({Benzoyl(4-OMe)}-RKLL[dY]I[dL]-NH2)",0.080 (0.03-0.20) mg/kg
8,"CC[C@H](C)[C@H](NC(=O)[C@@H](Cc1cccs1)NC(=O)[C@H](CC(C)C)NC(=O)[C@H](C)NC(=O)[C@H](CCCCN)NC(=O)[C@H](CCCNC(=N)N)NC(=O)c1ccc(OC)cc1)C(=O)N[C@H](CC(C)C)C(N)=O [S-160, p-anisoyl-Arg-Lys-Ala-Leu-D-Thi-Ile-D-Leu-NH2] ({Benzoyl(4-OMe)}-RKAL[d2Thi]I[dL]-NH2)",0.18 (0.07-0.49) mg/kg
9,"COc1ccc(C(=O)N[C@@H](CCCNC(=N)N)C(=O)N[C@@H](CCCCN)C(=O)N[C@@H](CC(C)C)C(=O)N[C@@H](CC(C)C)C(=O)N[C@H](Cc2cccs2)C(=O)N[C@@H](C)C(=O)N[C@H](CC(C)C)C(N)=O)cc1 [S-163, p-anisoyl-Arg-Lys-Leu-Leu-D-Thi-Ala-D-Leu-NH2] ({Benzoyl(4-OMe)}-RKLL[d2Thi]A[dL]-NH2)",0.067 (0.030-0.15) mg/kg
10,"CC[C@H](C)[C@H](NC(=O)[C@@H](C)NC(=O)[C@H](CC(C)C)NC(=O)[C@H](CC(C)C)NC(=O)[C@H](CCCCN)NC(=O)[C@H](CCCNC(=N)N)NC(=O)c1ccc(OC)cc1)C(=O)N[C@H](CC(C)C)C(N)=O [S-164, p-anisoyl-Arg-Lys-Leu-Leu-D-Ala-Ile-D-Leu-NH2] ({Benzoyl(4-OMe)}-RKLL[dA]I[dL]-NH2)",0.42 (0.18-0.96) mg/kg
11,"CC[C@H](C)[C@H](NC(=O)[C@@H](Cc1cccs1)NC(=O)[C@H](C)NC(=O)[C@H](CC(C)C)NC(=O)[C@H](CCCCN)NC(=O)[C@H](CCCNC(=N)N)NC(=O)c1ccc(OC)cc1)C(=O)N[C@H](CC(C)C)C(N)=O [S-165, p-anisoyl-Arg-Lys-Leu-Ala-D-Thi-Ile-D-Leu-NH2] ({Benzoyl(4-OMe)}-RKLA[d2Thi]I[dL]-NH2)",0.046 (0.015-0.14) mg/kg
12,"CC[C@H](C)[C@H](NC(=O)[C@@H](Cc1cccs1)NC(=O)[C@H](CC(C)C)NC(=O)[C@H](CC(C)C)NC(=O)[C@H](CCCCN)NC(=O)[C@H](C)NC(=O)c1ccc(OC)cc1)C(=O)N[C@H](CC(C)C)C(N)=O [S-118, p-anisoyl-Ala-Lys-Leu-Leu-D-Thi-Ile-D-Leu-NH2] ({Benzoyl(4-OMe)}-AKLL[d2Thi]I[dL]-NH2)",0.035 (0.012-0.10) mg/kg

# Same assay, conditions: in words
row,Compound,anti-edema activity
1,"CC[C@H](C)[C@H](NC(=O)[C@H](CCCNC(=N)N)NC(=O)[C@H](CCCNC(=N)N)NC(=O)c1cccc(OC)c1)C(=O)N[C@@H](CCCNC(=N)N)C(=O)N1CCC[C@H]1C(=O)N[C@@H](CCCCN)C(=O)N[C@@H](CC(C)C)C(N)=O [SQW-6, m-anisoyl-Arg-Arg-Ile-Arg-Pro-Lys-Leu-amide] ({Benzoyl(3-OMe)}-RRIRPKL-NH2)",active as anti-edema agents
2,"CC[C@H](C)[C@H](NC(=O)[C@H](CCCNC(=N)N)NC(=O)[C@@H](CCCNC(=N)N)NC(=O)c1ccc(OC)cc1)C(=O)N[C@H](CCCNC(=N)N)C(=O)N1CCC[C@H]1C(=O)N[C@H](CCCCN)C(=O)N[C@H](CC(C)C)C(N)=O [SQW-5, p-anisoyl-[D-Arg^6,9, D-Lys^11, D-Leu^12] dynorphin A(6-12)-NH2] ({Benzoyl(4-OMe)}-[dR]RI[dR]P[dK][dL]-NH2)",active as anti-edema agents
3,"CC[C@H](C)[C@H](NC(=O)[C@@H](CCCNC(=N)N)NC(=O)[C@@H](CCCNC(=N)N)NC(=O)c1ccc(OC)cc1)C(=O)N[C@H](CCCNC(=N)N)C(=O)N1CCC[C@H]1C(=O)N[C@H](CCCCN)C(=O)N[C@H](CC(C)C)C(N)=O [SQW-4, p-anisoyl-D-Arg-D-Arg-Ile-D-Arg-Pro-D-Lys-D-Leu-amide] ({Benzoyl(4-OMe)}-[dR][dR]I[dR]P[dK][dL]-NH2)",active as anti-edema agents

# Same assay, conditions: suppression of heat-induced edema in the anesthetized rat's paw; i
row,Compound,Anti-Inflammatory ED50
1,"CC[C@H](C)[C@H](NC(=O)[C@H](C)NC(=O)[C@H](CCCNC(=N)N)NC(=O)c1cccc(OC)c1)C(=O)N[C@@H](CCCNC(=N)N)C(=O)N1CCC[C@H]1C(=O)N[C@@H](CCCCN)C(=O)N[C@@H](CC(C)C)C(N)=O [SQW-8, m-anisoyl-Arg-Ala-Ile-Arg-Pro-Lys-Leu-amide] ({Benzoyl(3-OMe)}-RAIRPKL-NH2)",>1 µmol/kg
2,"COc1cccc(C(=O)N[C@@H](CCCNC(=N)N)C(=O)N[C@@H](CCCNC(=N)N)C(=O)N[C@@H](C)C(=O)N[C@@H](CCCNC(=N)N)C(=O)N2CCC[C@H]2C(=O)N[C@@H](CCCCN)C(=O)N[C@@H](CC(C)C)C(N)=O)c1 [SQW-9, m-anisoyl-Arg-Arg-Ala-Arg-Pro-Lys-Leu-amide] ({Benzoyl(3-OMe)}-RRARPKL-NH2)",0.65 µmol/kg
3,"CC[C@H](C)[C@H](NC(=O)[C@H](CCCNC(=N)N)NC(=O)[C@H](CCCNC(=N)N)NC(=O)c1cccc(OC)c1)C(=O)N[C@@H](CCCNC(=N)N)C(=O)N1CCC[C@H]1C(=O)N[C@@H](CCCCN)C(=O)N[C@@H](C)C(N)=O [SQW-13, m-anisoyl-Arg-Arg-Ile-Arg-Pro-Lys-Ala-amide] ({Benzoyl(3-OMe)}-RRIRPKA-NH2)",2.39 µmol/kg
4,"CC[C@H](C)[C@H](NC(=O)[C@H](CCCNC(=N)N)NC(=O)[C@H](CCCNC(=N)N)NC(=O)c1cccc(OC)c1)C(=O)N[C@@H](CCCNC(=N)N)C(=O)N1CCC[C@H]1C(=O)N[C@@H](C)C(=O)N[C@@H](CC(C)C)C(N)=O [SQW-12, m-anisoyl-Arg-Arg-Ile-Arg-Pro-Ala-Leu-amide] ({Benzoyl(3-OMe)}-RRIRPAL-NH2)",0.98 µmol/kg
5,"CC[C@H](C)[C@H](NC(=O)[C@H](CCCNC(=N)N)NC(=O)[C@H](CCCNC(=N)N)NC(=O)c1ccc(OC)cc1)C(=O)N[C@H](CCCNC(=N)N)C(=O)N1CCC[C@H]1C(=O)N[C@H](CCCCN)C(=O)N[C@H](CC(C)C)C(N)=O [SQW-2, p-anisoyl-Arg-Arg-Ile-D-Arg-Pro-D-Lys-D-Leu-amide] ({Benzoyl(4-OMe)}-RRI[dR]P[dK][dL]-NH2)",0.085 µmol/kg
6,"CC[C@H](C)[C@H](NC(=O)[C@H](CCCNC(=N)N)NC(=O)[C@H](C)NC(=O)c1cccc(OC)c1)C(=O)N[C@@H](CCCNC(=N)N)C(=O)N1CCC[C@H]1C(=O)N[C@@H](CCCCN)C(=O)N[C@@H](CC(C)C)C(N)=O [SQW-7, m-anisoyl-Ala-Arg-Ile-Arg-Pro-Lys-Leu-amide] ({Benzoyl(3-OMe)}-ARIRPKL-NH2)",>1 µmol/kg
7,"CC[C@H](C)[C@H](NC(=O)[C@H](CCCNC(=N)N)NC(=O)[C@H](CCCNC(=N)N)NC(=O)c1cccc(OC)c1)C(=O)N[C@@H](CCCNC(=N)N)C(=O)N1CCC[C@H]1C(=O)N[C@@H](CCCCN)C(=O)N[C@@H](CC(C)C)C(N)=O [SQW-6, m-anisoyl-Arg-Arg-Ile-Arg-Pro-Lys-Leu-amide] ({Benzoyl(3-OMe)}-RRIRPKL-NH2)",0.51 µmol/kg
8,"CC[C@H](C)[C@H](NC(=O)[C@H](CCCNC(=N)N)NC(=O)[C@H](CCCNC(=N)N)NC(=O)c1cccc(OC)c1)C(=O)N[C@@H](CCCNC(=N)N)C(=O)N[C@@H](C)C(=O)N[C@@H](CCCCN)C(=O)N[C@@H](CC(C)C)C(N)=O [SQW-11, m-anisoyl-Arg-Arg-Ile-Arg-Ala-Lys-Leu-amide] ({Benzoyl(3-OMe)}-RRIRAKL-NH2)",1.05 µmol/kg
9,"CC[C@H](C)[C@H](NC(=O)[C@H](CCCNC(=N)N)NC(=O)[C@@H](CCCNC(=N)N)NC(=O)c1ccc(OC)cc1)C(=O)N[C@H](CCCNC(=N)N)C(=O)N1CCC[C@H]1C(=O)N[C@H](CCCCN)C(=O)N[C@H](CC(C)C)C(N)=O [SQW-5, p-anisoyl-[D-Arg^6,9, D-Lys^11, D-Leu^12] dynorphin A(6-12)-NH2] ({Benzoyl(4-OMe)}-[dR]RI[dR]P[dK][dL]-NH2)",0.060 µmol/kg
10,"CC[C@H](C)[C@H](NC(=O)[C@@H](CCCNC(=N)N)NC(=O)[C@H](CCCNC(=N)N)NC(=O)c1ccc(OC)cc1)C(=O)N[C@H](CCCNC(=N)N)C(=O)N1CCC[C@H]1C(=O)N[C@H](CCCCN)C(=O)N[C@H](CC(C)C)C(N)=O [SQW-3, p-anisoyl-Arg-D-Arg-Ile-D-Arg-Pro-D-Lys-D-Leu-amide] ({Benzoyl(4-OMe)}-R[dR]I[dR]P[dK][dL]-NH2)",0.095 µmol/kg
11,"CC[C@H](C)[C@H](NC(=O)[C@@H](CCCNC(=N)N)NC(=O)[C@@H](CCCNC(=N)N)NC(=O)c1ccc(OC)cc1)C(=O)N[C@H](CCCNC(=N)N)C(=O)N1CCC[C@H]1C(=O)N[C@H](CCCCN)C(=O)N[C@H](CC(C)C)C(N)=O [SQW-4, p-anisoyl-D-Arg-D-Arg-Ile-D-Arg-Pro-D-Lys-D-Leu-amide] ({Benzoyl(4-OMe)}-[dR][dR]I[dR]P[dK][dL]-NH2)",0.200 µmol/kg
